Literature values in US20230123388A1 (GLANIS PHARMACEUTICALS, INC., priority 2020, published 2023).
Counter-ions that a name gives are not always drawn. Like-named read-outs stand apart in the source and are kept apart here.

Experiments:
[1] = test system: albumin and apha1-acid glycoprotein
[2] = not given; remark: listed apart in the source

Structure (SMILES)	solubility in alcohol (alcohol)	solubility in chloroform (chloroform)	solubility in ether (ether)	solubility in water (water)	protein binding [1] [%]	time of peak concentration ([2]; 200 mg oral dose)	peak concentration in blood ([2]; 200 mg oral dose, blood)	plasma concentration (peak) ([2]; 200 mg oral dose, plasma)	terminal half-life ([2]; based on blood concentration) [days]	terminal half-life ([2]; based on the plasma concentration profile) [days]	clearance ([2]; in vivo) [L/h]	half-life ([2]; in vivo) [days]	volume of distribution ([2]; in vivo, listed as HCQ)	oral bioavailability ([2]; oral tablet)	bioavailability ([2]; randomized cross over study, 155 mg dose oral and IV infusion)
CCN(CCO)CCCC(C)Nc1ccnc2cc(Cl)ccc12 (stereo not drawn) [Hydroxychloroquine sulfate]	practically insoluble	practically insoluble	practically insoluble	freely soluble	–	–	–	–	–	–	–	–	–	–	–
CCN(CCO)CCCC(C)Nc1ccnc2cc(Cl)ccc12 (stereo not drawn) [Hydroxychloroquine]	–	–	–	–	~40	around 3 hours	around 129.6 ng/ml	around 50.3 ng/ml	30 to 60	~32	15.5	~2.08	very large and high	about 75%	0.74
